{
  "source": "patent US6875843B2",
  "about": "“Prevention of diabetes and prolongation of the honeymoon phase of diabetes by administration of GnRH antagonists” (Children's Mercy Hospital, priority 2001, dated 2005)",
  "assay_type_in_all_cases": "in vivo, mouse",
  "key": {"NOD mice [1]": {"test_system": "NOD mice", "test": "Serum total immunoglobulin G in gonadectomized NOD mice (single radial immunodiffusion)", "settings": "100 μg s.c. six times weekly, 8 weeks of treatment, vs vehicle (FIG. 3)", "description": "(§1) Mice. The well-characterized NOD mice were used throughout the study. Male and female mice were purchased from the Jackson Laboratory (Bar Harbor, Me.). These mice are art-recognized animal models used in diabetes research. (Makino et al., (1980) Breeding of a Non-obese Diabetic Strain of Mice. Exp Anim, 29, 1-13; Miyazaki, A. T., et al, (1985) Predominance of T Lymphocytes in Pancreatic Islets and Spleen in Prediabetic Non-Obese Diabetic (Nod) Mice: a Longitudinal Study. Clin Exp immunol, 60, 622-630)\nExperimental Design. Both intact and gonadectomized mice (GDX) were used. […] To compare the effects of GnRH agonists and antagonists, gonadectomized animals were randomized at 14 to 18 days of age and begun immediately in one of the following main treatment groups: GnRH agonist; Antide; vehicle. One group of gonadectomized males was treated with Nal-Glu, as an additional control. […]\nClinical tests. Total immunoglobulin G concentrations were measured by single radial immunodiffusion assay using immunodiffusion plates containing monospecific antiserum for IgG (ICN Biomedicals, Inc., Costa Mesa, Calif. ). […] Glycosuria was scored by comparison to reference standards on a scale of 0 to 4 as follows: negative=0; 30 mg/dL=1; 100 mg/dL=2; 300 mg/dL=3;>1000 mg/dL=4.\nStatistics. […] Percentages of mice remaining diabetes-free was assessed by Mantel-Haenszel methodology. […]"}, "NOD mice [2]": {"test_system": "NOD mice", "test": "Incidence and onset of diabetes in gonadectomized male NOD mice", "settings": "for Timing of onset of diabetes: gonadectomized NOD mice; for Timing of onset of diabetes / Incidence of diabetes: 100 μg s.c. six times weekly (FIG. 4)", "description": "as §1\nExperimental Design. Both intact and gonadectomized mice (GDX) were used. […] To compare the effects of GnRH agonists and antagonists, gonadectomized animals were randomized at 14 to 18 days of age and begun immediately in one of the following main treatment groups: GnRH agonist; Antide; vehicle. One group of gonadectomized males was treated with Nal-Glu, as an additional control.\n(§2) Gonadectomy. Males were gonadectomized via a single scrotal incision under pentobarbital anesthesia.\n(§3) Injections. GnRH (native decapeptide) was purchased from Bachem (Bubendorf, Switzerland). GnRH antagonist Antide (Acetyl-β-[2-Naphthyl]-D-Ala-D-p-Chloro-Phe-β-[3-Pyridyl]-D-Ala-Ser-Nε-[Nicotinoyl]-Lys-Nε-[Nicotinoyl]-D-Lys-Leu-Nε-[Isopropyl]-Lys-Pro-D-Ala-NH2) was supplied by Contraceptive Development Branch (NICHHD) of the National Institutes of Health and Ares-Serono (Randolph, Mass.). A second GnRH antagonist, Nal-Glu (acetyl-D2Nal1, D4CIPhe2, D3Pal3, Arg5, Dglu6 (AA), DAla10) was supplied by NICHHD and was used on a subset of mice. All references to GnRH agonist refer to the native decapeptide. Animals were injected subcutaneously in the nape of the neck six times weekly, in the a.m., with 100 μg of GnRH or GnRH antagonist in 100 μl of vehicle consisting of 50% propylene glycol and 50% double distilled water.\nClinical tests. Total immunoglobulin G concentrations were measured by single radial immunodiffusion assay using immunodiffusion plates containing monospecific antiserum for IgG (ICN Biomedicals, Inc., Costa Mesa, Calif. ). Serum glucoses were checked weekly using a One Touch Fast Take meter (Lifescan, Milpitas, Calif.) Urine was tested for glucose by urinalysis reagent strips (Miles, Inc., Elkhart Ind.). Glycosuria was scored by comparison to reference standards on a scale of 0 to 4 as follows: negative=0; 30 mg/dL=1; 100 mg/dL=2; 300 mg/dL=3;>1000 mg/dL=4.\nStatistics. Serum immunoglobulin measurements were compared by two-tailed Student's paired t-tests. Percentages of mice remaining diabetes-free was assessed by Mantel-Haenszel methodology. (Mantel, N. (1966) Evaluation of Survival Data and Two New Rank Order Statistics Arising in its Consideration. Cancer Chemother Rep, 50, 163-70)"}, "NOD mice [3]": {"test_system": "NOD mice", "test": "Serum prolactin by radioimmunoassay in NOD mice", "settings": "100 μg s.c. six times weekly", "description": "as §3\nSera. Sera were collected from blood obtained every six weeks by retroorbital puncture after light isofluorane anesthesia.\nHormone measurements. Serum testosterone concentrations were measured by RIA using a commercial kit (Coat-A-Count, Diagnostic Products Corporation, Los Angeles, Calif.). Serum LH and prolactin were measured by radioimmunoassay (RIA) using previously described methods. […]"}, "NOD mice [4]": {"test_system": "NOD mice", "test": "Lymphocytic infiltration of islet cells, pancreatic histology in gonadectomized NOD mice", "settings": "100 μg s.c. six times weekly, 3, 5, 7, 9 and 11 weeks, vs vehicle (FIG. 5)", "method": "In this example, gonadectomized NOD mice were treated with either the GnRH antagonist Antide or the vehicle (50% propylene glycol and 50% double distilled water) to determine differences in the rate of lymphocytic infiltration of islet cells.\nMice. The well-characterized NOD mice were used throughout the study. Male and female mice were purchased from the Jackson Laboratory (Bar Harbor, Me.). Again, these mice are art-recognized animal models used in diabetes research.\nas §2\nInjections. The mice were injected subcutaneously in the nape of the neck six times weekly, in the a.m., with 100 μg of the GnRH antagonist in 100 μl of vehicle consisting of 50% propylene glycol and 50% double distilled water.\nPancreatic Histology. Three mice per treatment group were euthanized at 3, 5, 7, 9, and 11 weeks. Pancreatic histologic sections were stained by hemotoxillin and eosin. Ten tissue sections per treatment group were examined. All […] in each tissue section were scored with regard to the presence or absence of lymphocytic infiltrates."}},
  "data": [
    {"substance": "GnRH agonist: GnRH native decapeptide purchased from Bachem; all references to GnRH agonist refer to the native decapeptide (QHWSYGLRPG; Gonadoliberin-1; UniProt P01148 24-33, looked up)", "values": [
      {"measurement": "Serum IgG concentrations", "setting": "NOD mice [1]", "value": "further increased IgG levels compared to vehicle"},
      {"measurement": "Timing of onset of diabetes", "setting": "NOD mice [2]", "value": "accelerated"},
      {"measurement": "Incidence of diabetes", "setting": "NOD mice [2]; gonadectomized male NOD mice", "value": "significantly increased"},
      {"measurement": "Serum prolactin levels", "setting": "NOD mice [3]", "value": "neither agonist nor antagonist treatment altered serum prolactin levels"}
    ]},
    {"substance": "Acetyl-β-[2-Naphthyl]-D-Ala-D-p-Chloro-Phe-β-[3-Pyridyl]-D-Ala-Ser-Nε-[Nicotinoyl]-Lys-Nε-[Nicotinoyl]-D-Lys-Leu-Nε-[Isopropyl]-Lys-Pro-D-Ala-NH2 [Antide]", "values": [
      {"measurement": "Serum IgG concentrations", "setting": "NOD mice [1]", "value": "reduced serum IgG concentrations to levels seen in sham operated mice"},
      {"measurement": "Lymphocytic infiltration of islets (percentages of islets infiltrated)", "setting": "NOD mice [4]", "value": "statistically significant reduction in lymphocytic infiltration"},
      {"measurement": "Timing of onset of diabetes", "setting": "NOD mice [2]", "value": "delayed onset of diabetes"},
      {"measurement": "Incidence of diabetes", "setting": "NOD mice [2]; gonadectomized male NOD mice", "value": "significantly decreased"},
      {"measurement": "Percentage of treated mice diabetic", "setting": "NOD mice [2]; gonadectomized male NOD mice, 100 μg s.c. six times weekly, at 60 weeks of age, compared to vehicle (FIG. 4)", "value": 0, "unit": "%"},
      {"measurement": "Serum prolactin levels", "setting": "NOD mice [3]", "value": "neither agonist nor antagonist treatment altered serum prolactin levels"}
    ]}
  ]
}
